Experimental data: ChEMBL document CHEMBL1201862, “PubChem BioAssay data set” (2004)
The source made the active and inactive calls.

Tests used:
Protein Tat = Protein Tat (Human immunodeficiency virus type 1 group M subtype B (isolate HXB2)(HIV-1), UniProt P04608); assay type: functional;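 further: tat binding to TAR RNA read out by fluorescence polarization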
[1] = Luminescence Cell-Based Dose Confirmation HTS to Identify Inhibitors of Platelet Dense Granule Release. [Related pubchem assays: 1663 (Primary HTS), 1678 (Summary of Project)]; assay type: functional
[2] = target: Glutathione-S-transferase (Schistosoma japonicum, UniProt Q26513); assay: GST-antibody interaction or FRET quenching – biochemical, TR-FRET, artefact control for Vif-APOBEC3G degradation inhibitor project, dose response (AID 1117362); assay type: functional
[3] = target: Luciferin 4-monooxygenase (Photinus pyralis, UniProt P08659); assay: inhibition of purified Photinus pyralis luciferase – biochemical, luminescence, dose response (AID 1891)
[4] = viability loss in HEK293T cells – cell-based, ATP luminescence, dry powder, set 3, cytotoxicity control, dose response (AID 743131); assay type: functional; details: HEK293
Vero [5] = assay: cells; assay type: functional; details: Chlorocebus sabaeus
Cytochrome P450 3A4 = Cytochrome P450 3A4 (Homo sapiens, UniProt P08684);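 further: CYP3A4 tested as one member of a cytochrome P450 panel screen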
[6] = A Cell-Based Confirmatory Screen for Compounds that Inhibit VEEV, TC-83 (2).; assay type: functional
Vero [7] = assay: cells; assay type: functional, cell-based; details: Chlorocebus sabaeus
[8] = viability of uninfected HEp-2 cells – cell-based, HTS, cytotoxicity control for RSV inhibitor project, dose response (AID 2410); assay type: functional; details: human respiratory syncytial virus
[9] = viability loss in Vero 76 cells – cell-based, set 2, cytotoxicity control, dose response (AID 602240); assay type: functional; details: Venezuelan equine encephalitis virus
Cytochrome P450 1A2 = target: T1, Cytochrome P450 1A2 (Homo sapiens, UniProt P05177);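 further: PubChem cytochrome P450 panel assay, CYP1A2 panel member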
T1 sequence (P05177 whole entry): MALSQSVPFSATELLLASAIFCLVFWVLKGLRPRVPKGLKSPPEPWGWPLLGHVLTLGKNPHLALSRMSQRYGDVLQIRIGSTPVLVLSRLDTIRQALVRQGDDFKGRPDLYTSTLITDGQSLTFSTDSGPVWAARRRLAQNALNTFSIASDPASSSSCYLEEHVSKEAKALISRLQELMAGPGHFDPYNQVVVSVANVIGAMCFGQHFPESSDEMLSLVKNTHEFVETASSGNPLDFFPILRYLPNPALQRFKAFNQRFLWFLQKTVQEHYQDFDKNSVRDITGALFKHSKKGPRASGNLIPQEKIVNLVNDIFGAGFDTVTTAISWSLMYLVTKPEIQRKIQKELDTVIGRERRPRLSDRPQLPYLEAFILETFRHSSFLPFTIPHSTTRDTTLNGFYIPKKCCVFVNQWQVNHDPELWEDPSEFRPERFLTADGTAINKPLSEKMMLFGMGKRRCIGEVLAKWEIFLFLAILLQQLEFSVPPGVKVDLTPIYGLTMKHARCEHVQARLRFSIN

[10] = A Cell-Based Counter Screen testing Compounds that Inhibit VEEV TC-83, in strain KU V3526.; assay type: functional
[11] = PAX5 cellular inhibition readout – cell-based, plate reader, dry powder samples, selectivity assay for PAX8 inhibitor project, dose response (AID 743047); assay type: functional;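 further: HEK293 cells carrying a Pax5 driven CD19 promoter luciferase reporter; potency of inhibitors that lower reporter luminescence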
Paired box protein Pax-8 = Paired box protein Pax-8 (Homo sapiens, UniProt Q06710); assay: PAX8 transcriptional activity inhibition in RMG-I – RMG-I cells, luciferase, cherry-pick, dose response (AID 687027); assay type: functional, cell-based;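 further: luciferase reporter driven by Pax8 target thyroperoxidase promoter measured by SteadyGlo luminescence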
[12] = PAX8-dependent cell viability loss – plate reader, dry powder, dose response (AID 743049); assay type: functional, cell-based
[13] = OV-90 cell viability loss – plate reader, dry powder, SA8, PAX8 inhibitor project, dose response (AID 743149); assay type: functional, cell-based
[14] = inhibitors acting on PAX2 in cells – cell-based, plate reader, dry powder samples, selectivity assay for PAX8 inhibitor project, dose response (AID 743048); assay type: functional;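 further: HEK293 cells carrying a WT1 promoter luciferase reporter driven by expressed Pax2; potency is for inhibition of Pax2 driven reporter signal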
[15] = general mammalian cell viability loss – activator set, cherry-pick, cytotoxicity control for miR-122 modulator project, dose response (AID 720690); assay type: functional, cell-based;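 further: HEK293T human cells scored for general mammalian cytotoxicity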
[16] = general cell-killing toxicity readout – plate reader, dry powder samples, cytotoxicity control for PAX8 inhibitor project, dose response (AID 743021); assay type: functional, cell-based
[17] = OVCAR8 cell viability loss – plate reader, dry powder samples, PAX8 project, dose response (AID 743197); assay type: functional, cell-based; details: OVCAR-8
[18] = general mammalian cell viability loss – inhibitor set, cherry-pick, set 2, cytotoxicity control for miR-122 modulator project, dose response (AID 720697); assay type: functional, cell-based
[19] = lung carcinoma cell viability loss – CellTiter-Glo luminescence, dry powder, set 17, dose response (AID 1117284); assay type: functional, cell-based; details: A549
[20] = viability loss in A549 lung cells – cell-based, 24 h, CellTiter-Glo luminescence, cherry-picks, cytotoxicity control, dose response (AID 1053115); assay type: functional; details: A549, 24 h
[21] = Late-stage results from the probe development effort to identify antagonists of arginine vasopressin receptor 1a (AVPR1a): fluorescence-based cell-based dose response OXTR inhibition counterscreen assay.; assay type: functional
[22] = Late-stage results from the probe development effort to identify antagonists of arginine vasopressin receptor 1a (AVPR1a): fluorescence-based cell-based dose response AVPR1a inhibition assay.; assay type: functional
Vasopressin V1b receptor = Vasopressin V1b receptor (Homo sapiens, UniProt P47901); assay: Late-stage results from the probe development effort to identify antagonists of arginine vasopressin receptor 1a (AVPR1a): fluorescence-based cell-based dose response AVPR1b inhibition counterscreen assay.; assay type: functional
Vasopressin V2 receptor = Vasopressin V2 receptor (Homo sapiens, UniProt P30518); assay: Late-stage results from the probe development effort to identify antagonists of arginine vasopressin receptor 1a (AVPR1a): fluorescence-based cell-based dose response AVPR2 inhibition counterscreen assay.; assay type: functional
Vasopressin V2 receptor, sequence (P30518 whole entry): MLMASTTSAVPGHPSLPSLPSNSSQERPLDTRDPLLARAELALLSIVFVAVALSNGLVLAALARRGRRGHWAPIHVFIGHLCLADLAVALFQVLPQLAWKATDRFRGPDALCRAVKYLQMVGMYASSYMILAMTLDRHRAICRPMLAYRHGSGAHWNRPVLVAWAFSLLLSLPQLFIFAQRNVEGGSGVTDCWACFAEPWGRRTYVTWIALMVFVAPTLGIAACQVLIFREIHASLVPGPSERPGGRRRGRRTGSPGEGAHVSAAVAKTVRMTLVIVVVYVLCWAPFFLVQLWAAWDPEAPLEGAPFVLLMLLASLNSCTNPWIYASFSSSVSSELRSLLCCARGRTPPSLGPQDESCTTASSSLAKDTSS

Paired box protein Pax-8, sequence (Q06710 whole entry): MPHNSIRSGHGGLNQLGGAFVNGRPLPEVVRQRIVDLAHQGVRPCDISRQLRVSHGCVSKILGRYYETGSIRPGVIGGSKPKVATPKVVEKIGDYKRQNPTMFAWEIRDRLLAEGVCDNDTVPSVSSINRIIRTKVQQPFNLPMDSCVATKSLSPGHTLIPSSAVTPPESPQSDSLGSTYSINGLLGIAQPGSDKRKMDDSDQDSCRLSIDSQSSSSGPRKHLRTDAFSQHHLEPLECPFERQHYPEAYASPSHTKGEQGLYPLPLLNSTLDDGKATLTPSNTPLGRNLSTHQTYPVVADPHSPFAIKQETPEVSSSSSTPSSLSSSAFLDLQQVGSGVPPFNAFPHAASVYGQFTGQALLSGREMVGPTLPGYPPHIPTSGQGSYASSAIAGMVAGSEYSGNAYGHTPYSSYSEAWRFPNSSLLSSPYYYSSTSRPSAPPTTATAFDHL
Protein Tat, sequence (P04608 whole entry): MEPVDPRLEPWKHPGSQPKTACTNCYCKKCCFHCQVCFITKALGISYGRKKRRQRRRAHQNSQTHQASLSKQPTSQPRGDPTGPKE
Luciferin 4-monooxygenase, sequence (P08659 whole entry): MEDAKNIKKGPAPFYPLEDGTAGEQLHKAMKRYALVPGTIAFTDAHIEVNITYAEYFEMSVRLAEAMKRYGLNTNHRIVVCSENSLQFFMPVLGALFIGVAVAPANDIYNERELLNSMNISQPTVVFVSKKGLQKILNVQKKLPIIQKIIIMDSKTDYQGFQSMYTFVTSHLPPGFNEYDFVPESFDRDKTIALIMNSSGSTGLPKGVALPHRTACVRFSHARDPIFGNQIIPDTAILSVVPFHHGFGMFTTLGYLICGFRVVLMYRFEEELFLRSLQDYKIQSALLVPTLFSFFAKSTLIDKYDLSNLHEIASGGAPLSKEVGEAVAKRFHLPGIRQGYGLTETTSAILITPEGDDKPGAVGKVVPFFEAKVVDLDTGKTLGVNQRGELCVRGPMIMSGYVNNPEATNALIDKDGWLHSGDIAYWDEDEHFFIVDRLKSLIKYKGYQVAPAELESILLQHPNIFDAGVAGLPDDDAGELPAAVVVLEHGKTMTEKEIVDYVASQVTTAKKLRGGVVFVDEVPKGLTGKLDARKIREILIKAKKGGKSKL
Cytochrome P450 3A4, sequence (P08684 whole entry): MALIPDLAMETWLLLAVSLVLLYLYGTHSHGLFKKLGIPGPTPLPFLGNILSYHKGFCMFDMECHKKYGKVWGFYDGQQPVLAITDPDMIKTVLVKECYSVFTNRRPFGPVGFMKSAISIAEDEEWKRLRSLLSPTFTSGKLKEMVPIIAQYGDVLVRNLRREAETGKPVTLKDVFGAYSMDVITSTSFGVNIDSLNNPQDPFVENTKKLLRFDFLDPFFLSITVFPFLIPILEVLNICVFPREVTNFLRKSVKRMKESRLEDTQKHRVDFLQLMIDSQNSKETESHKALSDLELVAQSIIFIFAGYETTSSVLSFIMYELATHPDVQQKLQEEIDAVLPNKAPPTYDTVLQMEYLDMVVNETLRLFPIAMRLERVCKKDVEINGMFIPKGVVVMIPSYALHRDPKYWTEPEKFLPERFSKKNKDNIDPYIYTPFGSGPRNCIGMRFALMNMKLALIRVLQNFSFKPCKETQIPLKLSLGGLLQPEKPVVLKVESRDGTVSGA
Vasopressin V1b receptor, sequence (P47901 whole entry): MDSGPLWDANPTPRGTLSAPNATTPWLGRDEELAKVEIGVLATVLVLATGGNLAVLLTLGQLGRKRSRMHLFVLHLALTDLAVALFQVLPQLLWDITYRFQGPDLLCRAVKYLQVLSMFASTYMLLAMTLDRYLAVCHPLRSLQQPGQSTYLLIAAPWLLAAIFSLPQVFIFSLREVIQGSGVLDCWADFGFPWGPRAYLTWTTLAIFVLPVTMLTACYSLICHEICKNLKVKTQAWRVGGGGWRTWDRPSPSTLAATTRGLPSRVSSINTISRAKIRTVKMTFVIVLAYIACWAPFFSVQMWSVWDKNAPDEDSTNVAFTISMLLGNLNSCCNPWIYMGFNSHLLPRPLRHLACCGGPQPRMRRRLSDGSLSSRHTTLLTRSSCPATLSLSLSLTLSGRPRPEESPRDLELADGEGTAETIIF
Glutathione-S-transferase, sequence (Q26513 whole entry): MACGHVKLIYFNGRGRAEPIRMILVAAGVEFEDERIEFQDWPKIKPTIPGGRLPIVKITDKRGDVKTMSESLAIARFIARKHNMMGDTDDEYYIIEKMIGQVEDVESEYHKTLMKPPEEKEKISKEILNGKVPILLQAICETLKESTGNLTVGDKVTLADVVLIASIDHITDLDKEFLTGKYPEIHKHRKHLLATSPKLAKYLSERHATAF

For `O=C(NC(=S)N1CCCc2ccccc21)c1ccccc1`, the IC50 (Protein Tat) was > 100 µM (active), the EC50 [1] was > 112 µM (not active) and the IC50 [2] was 90.8 µM (active). The EC50 [3] was > 112 µM (not active).

In the case of `Cc1ccccc1OCCn1c(S)nc2ccccc21`, the AC50 [4] is reported as 0.344 µM (active).

With `CCOC(=O)c1ccc(Nc2nc(=O)c3cccnc3s2)cc1` the CC50 (Vero [5]) was > 25 µM (active), the AC50 (Cytochrome P450 3A4) was “inconclusive” and the IC50 [6] was 10.8 µM (active). The IC50 (Vero [7]) was 6.32 µM (active), the CC50 [8] was 22.4 µM (active) and the CC50 [9] was > 50 µM (active). For the same molecule, the AC50 (Cytochrome P450 1A2) was 14.1 µM (inconclusive), the IC50 (cells) was 9.32 µM (active) and the IC50 [10] was 7.07 µM (active).

For `N#C[C@@H]1[C@@H](c2ccc(-c3ccccc3F)cc2)[C@@H](CO)N1C(=O)C1CCC1`, the AC50 [11] was 60.8 µM (active), the AC50 (Paired box protein Pax-8) was 8.88 µM (active) and the AC50 [12] was > 70 µM (inactive). For the same molecule, the AC50 [13] was > 70 µM (inactive) and the AC50 [14] was > 70 µM (inactive).

For `C[C@H](O)C#Cc1ccc2c(c1)O[C@@H](CN(C)Cc1ccc(-c3ccccc3)cc1)[C@@H](C)CN([C@H](C)CO)S2(=O)=O`, the AC50 [15] was 22.8 µM (active), the AC50 [16] was 46.3 µM (active) and the AC50 [17] was > 70 µM (inactive). For the same molecule, the AC50 (Paired box protein Pax-8) was 4.57 µM (active), the AC50 [18] was 21.6 µM (active) and the AC50 [19] was > 52 µM (inactive). For the same molecule, the AC50 [20] was 48.6 µM (active).

In the case of `N#Cc1ccnc(N2CCC(C(=O)N(CC3CC3)c3ccc(Cl)cc3)CC2)c1`, the IC50 [21] is reported as 4.6 µM (active), the IC50 [22] is reported as 0.0628 µM (active) and the IC50 (Vasopressin V1b receptor) is reported as > 50 µM (inactive). For the same molecule, the IC50 (Vasopressin V2 receptor) was > 50 µM (inactive).
